Columns and labels:
ASM = molecular target: T1, ASM (Mus musculus, UniProt Q04519); test: Incubation of ex vivo splenocytes, Ly6G-sorted myeloid cells or J774 macrophages with polyamines: ASM activity and sphingomyelin; assay type: cell-based, mice; conditions: agmatine 5 μM, 8 hr
T1 construct: endogenous in cells; host or cells: ex vivo mouse splenocytes, Ly6G-sorted myeloid cells, J774 macrophages
T1 sequence (Q04519 45-627): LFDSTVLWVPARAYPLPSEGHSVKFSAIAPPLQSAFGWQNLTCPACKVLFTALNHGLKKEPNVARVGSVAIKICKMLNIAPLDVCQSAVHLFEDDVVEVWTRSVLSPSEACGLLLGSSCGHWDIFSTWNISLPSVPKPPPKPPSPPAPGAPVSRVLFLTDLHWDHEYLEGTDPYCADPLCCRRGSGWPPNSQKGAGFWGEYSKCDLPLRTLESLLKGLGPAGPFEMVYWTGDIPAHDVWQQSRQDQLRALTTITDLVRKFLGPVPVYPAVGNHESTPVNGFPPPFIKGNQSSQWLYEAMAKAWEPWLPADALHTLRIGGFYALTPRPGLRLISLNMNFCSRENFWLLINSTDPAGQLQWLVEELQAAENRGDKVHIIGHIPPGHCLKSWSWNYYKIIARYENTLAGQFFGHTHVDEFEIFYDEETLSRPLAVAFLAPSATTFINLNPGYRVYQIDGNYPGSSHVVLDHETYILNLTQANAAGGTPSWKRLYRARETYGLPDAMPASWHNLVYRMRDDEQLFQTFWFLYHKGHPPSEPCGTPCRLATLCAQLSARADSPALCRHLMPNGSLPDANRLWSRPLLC
Experimental: FIG. 9A is a graph showing the concentration of polyamines in the blood plasma of wt or ASM-tr mice determined by ELISA. FIG. 9B is a graph showing the activity of ASM for splenocytes that were isolated from wt or ASM-tr mice and stimulated for 8 hr with 5 μM agmatine (Agm), 100 μM spermine (Sp), or 100 μM spermidine (Spd). FIG. 9C is a graph showing the concentrations of sphingomyelin for splenocytes that were isolated from wt or ASM-tr mice and stimulated for 8 hr with 5 μM agmatine (Agm), 100 μM spermine (Sp), or 100 μM spermidine (Spd). The activity of ASM and the concentrations of sphingomyelin were determined by an enzyme assay or ELISA. Mean±SD; n=6-8; **p<0.01, ***p<0.001 ANOVA.
An increase of Arg-1 and ADC expression may also increase polyamine concentrations. […]
FIG. 10 is a graph showing ASM activity (A) and levels of sphingomyelin (B), Arg-1 (C), and ADC (D) were determined in macrophages (J774 cell line) or in stable ASM-transfected J774 (with an approximately 3-fold overexpression of ASM) at baseline, after treatment with agmatine (Agm, 5 μM), spermine (Sp, 100 μM), or spermidine (Spd, 100 μM), supernatant (Sup) from KPC cells, and supernatant immunodepleted (id) of polyamines. ASM activity was measured by determining the consumption of [^14C]sphingomyelin, Sphingomyelin-, Arginase-1- and ADC-levels were quantified by ELISA. […]

[1] = tested on: Pan02 pancreas cancer cells; test: Orthotopic pancreatic cancer murine model (Pan02), tumor size 15 days after injection; assay type: in vivo; conditions: wildtype mice, amitriptyline 10 mg/kg i.p. every other day, 15 days after tumor initiation, vs vehicle
Experimental: The wildtype mice were randomly divided into 2 groups treated with antidepressant (amitriptyline 10 mg/kg, i.p. injected every 2nd day) or vehicle, i.e. 0.9% NaCl. The size of the pancreas cancer was determined 15 days after tumor initiation.
FIG. 4 is a graph showing a growth of PDAC in murine models of orthotopic pancreatic ductal adenocarcinoma. Wildtype mice were injected orthotopically into the pancreas with […] Pan02 pancreas cancer cells and either left untreated or treated with amitriptyline at 10 mg/kg every other day via IP injection starting at day 4 after tumor injection. In addition, we injected acid sphingomyelinase-deficient littermates with Pan02 pancreas cancer cells orthotopically into the pancreas. Tumor size was determined 15 days after injection. Shown are the mean±SD of the tumor size from each n=4-5 mice per group; *p<0.05, ANOVA with Tukey post hoc test.
All animal experiments were approved by the University of Cincinnati Ethic Committee and the Institutional Animal Care and Use Committee. Eight-week-old, wild type male, C57BL/6J mice were purchased from Jackson Labs (000664, Jackson Labs, USA). Acid sphingomyelinase-deficient mice (Smpd1−/−) were bred and genotyped at the animal facility of the University of Cincinnati. […] The size of the pancreas cancer was determined in all groups 15 days after tumor initiation.

[2] = tested on: isolated immune cells from tumors in wt mice; test: Anti-CD3-mediated IL-2 and INFγ formation in isolated immune cells from tumor wt mice; assay type: cell-based; conditions: arginine added to isolated immune cells from tumors in wt mice
Text: Further, it was confirmed that sphingomyelin caused upregulation of Arg-1 and ADC and the concomitant reduction of arginine concentrations results in immune inhibition. Confirmation was accomplished by the finding that anti-CD3-mediated IL-2 and INFγ-formation, as well as cytotoxicity toward KPC cells, is lower in splenocytes isolated from wt mice injected with PDAC than in splenocytes from ASM-tr mice (FIG. 8E).

KPC-PDAC cells = test: Tumor development and survival of wildtype and ASM-transgenic mice after i.p. injection of KPC-PDAC cells, gemcitabine treatment (Example 4, FIG. 5); assay type: in vivo; conditions: for response of tumors to treatment: i.p. KPC-PDAC cells
Experimental: FIG. 5 is a graph showing the survival of wildtype and ASM-transgenic mice after i.p. injection of 25,000 KPC cells. Treatment of ASM-transgenic (tr) mice with gemcitabine rescued 100% of the mice from tumor growth. n=12 each group.
An experiment was conducted to determine if acid sphingomyelinase overexpression prevents tumor growth. Based on the clinical data, the effects of ASM overexpression and tumor growth were evaluated.

SLC66A1 = molecular target: T2, SLC66A1 (Mus musculus, UniProt Q8C4N4); test: Binding of [14C]sphingomyelin to immunoprecipitated SLC66A1
T2 construct: SLC66A1 was immunoprecipitated from 40×10^6 splenocytes, after lysis in RIPA-buffer+aprotinin/leupeptin; endogenous in cells; host or cells: splenocytes (immunoprecipitate on protein A/G agarose)
T2 sequence (Q8C4N4 1-293): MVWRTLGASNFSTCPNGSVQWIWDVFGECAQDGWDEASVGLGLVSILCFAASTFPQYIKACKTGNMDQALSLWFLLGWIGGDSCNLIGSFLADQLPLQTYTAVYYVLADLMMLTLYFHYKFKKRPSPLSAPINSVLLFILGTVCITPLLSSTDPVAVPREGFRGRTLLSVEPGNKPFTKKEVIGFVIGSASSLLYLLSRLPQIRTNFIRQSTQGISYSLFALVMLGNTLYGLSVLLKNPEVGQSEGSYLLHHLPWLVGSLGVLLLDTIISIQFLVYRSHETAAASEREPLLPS
Experimental: FIG. 7A is a graph showing the binding of [^14C]sphingomyelin (SM), [^14C]ceramide (Cer), and [^14C]sphingosine (SPH) in the absence or presence of the VMLTLYFYY peptide.
(§1) The lysosomal arginine transporter SLC66A1 contains a VMLTLYFYY motif. A study was conducted to investigate whether SLC66A binds to sphingomyelin. […] Additionally, efflux of arginine was markedly higher in lysosomes of splenic myeloid cells isolated from wt tumors than in cells from control mice and absent in ASM-tr cells (FIG. 7B).
FIG. 7A is a graph showing SLC66A1 was immunoprecipitated from 40×10^6 splenocytes, after lysis in RIPA-buffer+aprotinin/leupeptin. Immunocomplexes were immobilized on protein A/G agarose, washed 3-times in RIPA buffer and twice in PBS+0.1% Triton X100, resuspended in the same buffer and binding of [^14C]sphingomyelin (SM), [^14C]ceramide (Cer), or [^14C]sphingosine (SPH) was measured in the absence or presence of the VMLTLYFYY peptide.

[3] = tested on: lysosomal arginine transport; test: Efflux of arginine from isolated lysosomes of Ly6G-sorted splenocytes; assay type: biochemical, mice; conditions: lysosomes of wt cells treated with sphingomyelin
Experimental: FIG. 7B is a graph showing the results of isolated lysosomes from Ly6G-sorted splenocytes obtained from mice with or without PDAC being loaded with [^14C]arginine and the efflux of [3H]arginine being determined. Aliquots of the lysosomes were treated with sphingomyelin.
as §1
FIG. 7B is a graph showing isolated lysosomes from Ly6G-sorted splenocytes obtained from mice with or without PDAC were loaded with [^14C]arginine and the efflux of [3H]arginine was determined. Aliquots of the lysosomes were treated with sphingomyelin. Mean±SD; n=6-8; ***p<0.001 ANOVA.

Molecule: N=C(N)NCCCCN [agmatine]
- ASM activity (ASM): inhibited ASM activity
- cellular sphingomyelin concentrations (ASM): increased cellular sphingomyelin concentrations

Molecule: CN(C)CCC=C1c2ccccc2CCc2ccccc21 [amitriptyline]
- tumor growth (tumor size) [1]: increased tumor growth

Molecule: N=C(N)NCCC[C@H](N)C(=O)O [arginine]
- CD3-mediated formation of IL-2 and INFγ [2]: restored

Molecule: Nc1ccn([C@@H]2O[C@H](CO)[C@@H](O)C2(F)F)c(=O)n1 [gemcitabine]
- response of tumors to treatment (KPC-PDAC cells; ASM-tr mice, low dose of gemcitabine): completely eradicate the tumors
- mice rescued from tumor growth (KPC-PDAC cells; ASM-transgenic mice, 25,000 KPC cells i.p., n=12): 100%
- response of tumors to treatment (KPC-PDAC cells; wt mice): resistant

Molecule: VMLTLYFYY [VMLTLYFYY peptide]
- binding of sphingomyelin to SLC66A1 in the presence of peptide (SLC66A1; excess synthetic peptide): almost abrogated

Molecule: sphingomyelin
- binding to SLC66A1 (SLC66A1; immunoprecipitation from splenocytes, [14C]sphingomyelin): direct and specific binding
- efflux of arginine from lysosomes [3]: strongly activated

Source: patent US20250341522A1, “Treatment Strategies for Pancreatic Cancer Using Recombinant Acid Sphingomyelinase” (University of Cincinnati, priority 2024, published 2025)
